According to patent US20100190187A1, “Screening Assays for Antagonists and Analyses of Cardiac Hypertrophy” (The Regents of the University of Michigan Office of …, priority 2006, published 2010):

System: HL-1 cells
Assay: Western blot of hypertrophy biomarkers in HL-1 cells
Format: cell-based, murine
Conditions: for dose dependence of expression of the VDR: FIG. 13(C), compared to control
Experimental: Screening assays employing incubation of VDR containing cells with and without a test compound. Cell extracts can be prepared and screened for increases or decreases of cardiac hypertrophy biomarkers or increase in PKC activity, VDR expression, myotrophin expression, using antibody detection methods described herein. Equivalent protein quantities of test compound cell extracts and control cell extracts can be loaded onto continuous or discontinuous PAGE gels and electrophoresed from 15 min to 24 hours, depending on the size of the gel. Following electrophoresis, the proteins can be electrophoretically transferred to PVDF membranes and probed with antibodies specific for example to Protein Kinase C and downstream regulated products c-myc, VDR, ANP, calbindin 9 and 32 and myotrophin. Bound antibodies can be visualized using chemiluminescent detection, chromatic detection or any method of detection of labeled membrane bound antibodies otherwise known as Western blotting. […] In FIG. 13(A), Western blots reveal that when HL-1 cells are incubated in the presence of a control sample (left lane) and a test compound (right lane). In some embodiments, for example, Vitamin D3 analog or metabolite, can be the test compound, or Vitamin D3 can be a control to measure the activity of the test compound. As shown in FIG. 13(A), Vitamin D3 reduces the expression of ANP, c-myc and calbindin 9 as compared to cells not incubated in the presence if Vitamin D3. […] Vitamin D3 has a positive up-regulating effect upon the expression of the VDR in HL-1 cells.
Treated and control samples of HL-1 cells are trypsinized and removed from flasks. Cell counts are performed under microscope with a Fisher hemacytometer. Samples are centrifuged at 3000 RPM for 2 minutes to obtain a pellet, which is then re-suspended in an SDS-leupeptin sample buffer (SB). This whole cell lysate can then be boiled for 15 minutes, separated into working aliquots, and stored at −20° C. for analysis. Standard Bradford Protein Determination is then performed on all samples. Samples are then electrophoresed as described in Example 4. Following electrophoresis, protein is transferred onto a PVDF (Millipore) membrane. After blocking the membrane for one hour with 5% milk in TBS containing 0.05% Tween 20 (Sigma), the blots are incubated with primary and secondary antibodies according to the dilutions listed below. The blot is washed three times in TBS/0.5% Tween 20 after each incubation, followed by one final wash in TBS. The membrane can then be treated with ECL developer (Amersham Biosciences) and exposed to Kodak Biomax XAR film. To confirm equal loading of protein into the wells each blot can be stripped and re-probed with HRP conjugated goat anti-mouse actin antibody (sc-1616HRP; Santa Cruz Biotechnology Co; 1:1000). The primary antibodies that can be used include rabbit anti-mouse VDR (sc-1008; Santa Cruz Bio; 1:200 dilution); rabbit anti-mouse ANP (AB 5490; Chemicon; 1:500 dilution), mouse monoclonal anti-myotrophin (V11220; BD Transduction Laboratory; 1:1000), rabbit anti-mouse c-myc (sc-764, Santa Cruz Bio; 1:100), and goat anti-mouse calbindin-9 (sc-18038, Santa Cruz Bio; 1:100). The secondary antibodies which can be used include HRP conjugated goat anti-rabbit (AP 132P, Chemicon; 1:1000) for VDR, ANP, and c-myc. HRP conjugated goat anti-mouse (A 2304, Sigma; 1:1000), and bovine anti-goat Ab (sc2350, Santa Cruz Bio; 1:250), for myotrophin and calbindin-9, respectively.

## C=C1CC[C@H](O)C/C1=C/C=C1\CCC[C@]2(C)[C@@H]([C@H](C)CCCC(C)C)CC[C@@H]12 [Vitamin D3]
FIG. 13(A)
  levels of intracellular ANP: significantly reduced levels
  levels of intracellular Calbindin 9: significantly reduced levels
  levels of intracellular c-myc: significantly reduced levels
FIG. 13(B), 1 and 24 hours post exposure
  expression of the VDR: up-regulated
  dose dependence of expression of the VDR: dose dependent
Listed as Vitamin D 3
  dose dependence of expression of the VDR: dose dependent induction of expression of VDR
